From paper PMC2901233 (Nuclear medicine and biology, 2010)
Several values for one entry are separate records, joined by “and”; a condition that tells them apart may be missing. Equal values may be shown once. Entries after “also recorded” stand apart in the source; their conditions may differ.

Key:
[1] = system: 5-HT transporter; conditions: cited from earlier work
[2] = system: serotonin transporters; assay: SPECT binding potential; assay type: in vivo, baboon (Papio anubis)
[3] = reversed phase HPLC analysis of components of plasma radioactivity; assay type: in vivo, baboon (Papio anubis)
[4] = plasma protein binding by the ultrafiltration method; assay type: in vitro ADME, baboon (Papio anubis)
[5] = assay type: in vivo, baboon (Papio anubis)
[6] = system: dopamine transporter; conditions: cited from earlier work
[7] = system: serotonin transporter
[8] = MRTM2 analysis, bolus only study, first animal
[9] = average of equilibrium scans prior to displacement, same animal as MRTM2
[10] = 3 min after injection, arterial plasma
[11] = 5 min after injection, arterial plasma
[12] = 10 min after injection, arterial plasma
[13] = 30 min after injection, arterial plasma
[14] = 60 min after injection, arterial plasma
[15] = 120 min after injection, arterial plasma
[16] = 180 min after injection, arterial plasma
[17] = 360 min after injection, arterial plasma
[18] = 0.5 mg/kg IV at 8 h post-radiotracer, n=2

COC(=O)C1C2CCC(CC1c1ccc(/C=C\I)cc1)N2 (stereo not drawn) [[^123I]p ZIENT, 2β-carbomethoxy-3β-(4′-((Z)-2-iodoethenyl)phenyl)nortropane]
SERT binding affinity [1]: ~0.05 nM
BPND basal ganglia [2, 8]: 0.97
BPND brainstem [2, 8]: 1.34
BPND diencephalon [2, 8]: 1.48
BPND hippocampus [2, 8]: 0.49
BPND temporal cortex [2, 8]: 0.39
BPND basal ganglia [2, 9]: 0.81
BPND brainstem [2, 9]: 1.34
BPND diencephalon [2, 9]: 1.04
BPND hippocampus [2, 9]: 0.82
BPND temporal cortex [2, 9]: 0.22
BPND basal ganglia ([2]; second animal): 2.9
BPND brainstem ([2]; second animal): 4.32
BPND diencephalon ([2]; second animal): 3.83
BPND hippocampus ([2]; second animal): 2.07
BPND temporal cortex ([2]; second animal): 1.28
Relative proportion of plasma radioactivity, Parent Compound ([3]; 1 min after injection, arterial plasma): 69%
Relative proportion of plasma radioactivity, Parent Compound [3, 10]: 69%
Relative proportion of plasma radioactivity, Polar Fraction (metabolite) [3, 10]: 5%
combined two polar metabolite fractions as percent of total plasma activity ([3]; 3 min post-injection): 31%
Relative proportion of plasma radioactivity, Parent Compound [3, 11]: 65%
Relative proportion of plasma radioactivity, Polar Fraction (metabolite) [3, 11]: 10%
Relative proportion of plasma radioactivity, Parent Compound [3, 12]: 43%
Relative proportion of plasma radioactivity, Polar Fraction (metabolite) [3, 12]: 41%
Relative proportion of plasma radioactivity, Parent Compound [3, 13]: 16%
Relative proportion of plasma radioactivity, Polar Fraction (metabolite) [3, 13]: 78%
Relative proportion of plasma radioactivity, Parent Compound [3, 14]: 10%
Relative proportion of plasma radioactivity, Polar Fraction (metabolite) [3, 14]: 87%
Relative proportion of plasma radioactivity, Parent Compound [3, 15]: 5%
Relative proportion of plasma radioactivity, Polar Fraction (metabolite) [3, 15]: 94%
Relative proportion of plasma radioactivity, Parent Compound [3, 16]: 4%
Relative proportion of plasma radioactivity, Polar Fraction (metabolite) [3, 16]: 95%
combined two polar metabolite fractions as percent of total plasma activity ([3]; 180 min post-injection): 96%
Relative proportion of plasma radioactivity, Parent Compound [3, 17]: 3%
Relative proportion of plasma radioactivity, Polar Fraction (metabolite) [3, 17]: 96%
time of peak level of radioactivity in arterial plasma ([3]; after bolus injection): 4 to 7 min
time of peak of the transient fraction ([3]; arterial plasma): 3 to 5 min
unmetabolized parent as proportion of plasma radioactivity ([3]; at the time of peak level of radioactivity in arterial plasma (4-7 min)): 69%
lipophilic radiolabeled metabolites entering the brain ([3]; baboon arterial plasma, HPLC): no detection; also recorded: detected no radiometabolites that are capable of entering the brain
transient fraction at its peak, proportion of plasma radioactivity ([3]; peak at 3-5 min): 26%
protein bound in plasma ([4]; first of the two baboons): 93.1± 0.3% and 93%
protein bound in plasma ([4]; second of the two baboons): 89.8 ± 0.7% and 90%
time of peak whole brain uptake ([5]; bolus IV injection): 74 min
whole brain uptake, percent of injected dose ([5]; bolus IV injection, at peak (74 min)): 2.3%
time at which equilibrium was established ([5]; bolus to constant infusion at a ratio of 9.0 h): 4 to 8 h
change per hour at equilibrium ([5]; bolus to constant infusion, between 4-8 h): < 5%
specificity for binding to the 5-HT transporter compared to the dopamine transporter [6]: 100 fold

COC(=O)C(c1ccccc1)C1CCCCN1 (centres unmarked) [Methylphenidate, methylphenidate]
Percent Displacement in [123I]p ZIENT (BPND), Basal Ganglia [7, 18]: -4%
Percent Displacement in [123I]p ZIENT (BPND), Brainstem [7, 18]: -11%
Percent Displacement in [123I]p ZIENT (BPND), Diencephalon [7, 18]: -5%
Percent Displacement in [123I]p ZIENT (BPND), Hippocampus [7, 18]: -8%
Percent Displacement in [123I]p ZIENT (BPND), Temporal Cortex [7, 18]: -1%
displacement of [123I]p ZIENT in all regions studied, in words ([7]; IV at 8 h post-radiotracer, fluoxetine 1.5, 2.5, citalopram 5, methylphenidate 0.5, nisoxetine 1 mg/kg): no significant changes
